According to patent US12213990B2, “A3 adenosine receptor ligand for use for achieving a fat loss effect” (CAN-FITE BIOPHARMA LTD., priority 2019, dated 2025):

What was measured:
[1] = Body weight in STZ-induced diabetic rat model; type: in vivo, Sprague Dawley rats; details: STZ diabetic rats, 100 μg/kg orally twice daily for five days
Procedure: Diabetes is one of the complications of obesity. Therefore, the effect of an A3AR ligand on body weight in a diabetic model was also evaluated.
Sprague Dawley male rats (8-10 week old) were administered IP with Streptozotocin (STZ) at a dose level of 60 mg/kg in citrate buffer to create a diabetic model. Only animals with blood glucose level higher than 250 mg/dL were included in the study. CF602, an allosteric A3AR ligand was administered orally twice daily for five days at a dose of 100 μg/kg. Body weight was monitored after 5 days.

3T3-L1 adipocytes [2] = assay: 3H-thymidine incorporation assay, proliferation of 3T3-L1 adipocytes; type: cell-based; details: 3T3-L1 cells
Procedure: 3T3-L1 pre-adipocytes were purchased from American Type Culture Collection (ATCC; Manassas, VA, USA). The pre-adipocytes were maintained in Dulbecco's modified Eagle's medium (DMEM; Hyclone, South Logan, UT, USA), and supplemented with 10% newborn calf serum (Hyclone) and antibiotics (Hyclone) at 37° C. in 5% CO2. To induce adipocyte differentiation, the pre-adipocytes were plated at 24-well plates. After confluence, the medium was changed and 10 μg/ml insulin, 1 μM DEX and 0.5 mM IBMX was added. Two days later the media were changed to the basal medium supplemented with 10% FBS and 10 μg/ml insulin. The media were replaced every 2 days for a period of 8-14 days. To evaluate cell proliferation, ^3H-thymidine incorporation assay was used. The 3T3-L1 cells (5,000 cells/well) were incubated with 5 or 10 nM CF102 96-well plate for 48 hours. Each well was pulsed with […] ^3H-thymidine for the last 24 hours. Cells were harvested and the ^3H-thymidine uptake was determined in an LKB liquid scintillation counter (LKB, Piscataway, NJ, USA).

[3] = Body weight in diet-induced obesity mouse model (HFD vs. regular diet); type: in vivo, C57BL/6J mice; details: HFD 12 weeks, then 100 μg/Kg daily oral for 4 weeks
Description: Because complications from obesity such as diabetes and cardiovascular disease usually require decades, surrogate animal models are important for studying the molecular aspects of obesity and its pathophysiological effects. One of these models that are gaining increasing attention is the diet-induced obesity model in mouse. The present protocol is designed to evaluate effects of CF102 in an in vivo mouse model of Diet-Induced obesity. The mice utilized are C57BL/6J males, 4-6 weeks old (The Jackson Laboratory, stock 000664). 60 kcal % fat diet (Research Diets, D12492i) Group I-II: Naïve animals (n=20) were fed with a regular diet, served as a control group and were defined as ‘Lean Diet’ After 12 weeks, mice were divided into 2 groups (n=10 per group), the first was treated with a daily oral administration of CF102 (Can-Fite BioPharma, Cat #A14402-10; 100 μg/Kg) for 4 weeks and the second with vehicle only. Group III-IV—Naïve mice (n=20) were fed with HFD for 12 weeks. After 12 weeks, mice were divided into 2 groups (n=10 per group), the first was treated with daily oral administration of CF102 (Can-Fite BioPharma, Cat #A14402-10; 100 μg/Kg) for 4 weeks and the second with vehicle only.

3T3-L1 adipocytes [4] = assay: Oil-Red-O staining, accumulation of lipid droplets in 3T3-L1 adipocytes; type: cell-based; details: 5 nM CF102, 48 h, p=0.01
Procedure: Pre-adipocytes were incubated in a differentiated medium (DMEM high glucose+10% FBS) containing 10 μg/ml insulin, 1 μM DEX and 0.5 mM IBMX and treated with 5 nM CF102 for 48 h to evaluate its potential anti-adipogenic effect. The accumulation of lipid droplets was evaluated by staining with Oil-Red-O. Briefly, cells were washed with PBS, incubated with 3.7% HCHO for 1 hr and then, incubated with Oil-Red-O solution for 45 min. Cells were washed very well to remove the excess of Oil-Red-O, visualized and photographed under an Olympus microscope with a Leica camera. For the quantification of lipid accumulation, cells were dissolved in isopropanol and the optical density was read on a Dynatech Corp. Microelisa reader (Chantilly, VA) at 595 nm. The degree accumulation of lipid droplets was proportional to the optical density.

Compound | weight change from baseline (body weight) [1] | reduction of adipocyte proliferation compared to the control measurement (3T3-L1 adipocytes [2]; 5 nM CF102, 48 hours) | reduction of adipocyte proliferation compared to the control measurement (3T3-L1 adipocytes [2]; 10 nM CF102, 48 hours) [%] | weight loss, mice under HFD [3] | lipid accumulation (OD value at 595 nm) vs. vehicle treated control (3T3-L1 adipocytes [4])
Clc1ccc(Nc2nc3ccccc3c3[nH]c(C4CCCCC4)nc23)cc1Cl [CF602, N-(3,4-Dichloro-phenyl)-2-cyclohexyl-1H-imidazo[4,5-c]quinolin-4-amine] | significant (p<0.03) decrease in body weight | – | – | – | –
CNC(=O)[C@H]1O[C@@H](n2cnc3c(NCc4cccc(I)c4)nc(Cl)nc32)[C@H](O)[C@@H]1O [CF102, 2-chloro-N^6-(3-iodobenzyl)-adenosine-5′-N-methyluronamide] | – | more than 20% | > 40 | significant (p<0.001) weight loss effect | inhibition in lipid accumulation
